From ChEMBL document CHEMBL4680246, “Design, synthesis and biological evaluation of novel O-carbamoyl ferulamide derivatives as multi-target-directed ligands for the treatment of Alzheimer's disease” (Eur J Med Chem, 2020)
Active and inactive are the calls of the source. The rule behind the calls is not given here.

What was measured:
[1] = Drug metabolism in human liver microsomes by HPLC analysis; format: ADME, Microsome
Danio rerio = organism: Danio rerio; assay: Antialzheimer activity in AlCl3-induced Zebrafish model of Alzheimer's disease assessed as increase in motility speed at […] relative to control; format: functional; conditions: dose 0.11 µg/ml
[2] = Acute toxicity in Kunming mouse assessed as lethargy at 250 to 1000 mg/kg; format: organism-based; conditions: in vivo, dose 250-1000 mg/kg
[3] = target: Amyloid-beta precursor protein (Homo sapiens) (UniProt P05067); assay: Disaggregation of self-induced amyloid beta (1 to 42) (unknown origin) preformed fibrils at 25 uM measured after 24 hrs by transmission electron microscopic analysis
[4] = Toxicity in Zebrafish assessed as induction of yolk sac absorption delay at 3.125 ug/ml relative to control; design: species or system Danio rerio; conditions: in vivo, at 3.125 µg/mL

Amyloid-beta precursor protein (Homo sapiens), sequence (P05067 whole entry): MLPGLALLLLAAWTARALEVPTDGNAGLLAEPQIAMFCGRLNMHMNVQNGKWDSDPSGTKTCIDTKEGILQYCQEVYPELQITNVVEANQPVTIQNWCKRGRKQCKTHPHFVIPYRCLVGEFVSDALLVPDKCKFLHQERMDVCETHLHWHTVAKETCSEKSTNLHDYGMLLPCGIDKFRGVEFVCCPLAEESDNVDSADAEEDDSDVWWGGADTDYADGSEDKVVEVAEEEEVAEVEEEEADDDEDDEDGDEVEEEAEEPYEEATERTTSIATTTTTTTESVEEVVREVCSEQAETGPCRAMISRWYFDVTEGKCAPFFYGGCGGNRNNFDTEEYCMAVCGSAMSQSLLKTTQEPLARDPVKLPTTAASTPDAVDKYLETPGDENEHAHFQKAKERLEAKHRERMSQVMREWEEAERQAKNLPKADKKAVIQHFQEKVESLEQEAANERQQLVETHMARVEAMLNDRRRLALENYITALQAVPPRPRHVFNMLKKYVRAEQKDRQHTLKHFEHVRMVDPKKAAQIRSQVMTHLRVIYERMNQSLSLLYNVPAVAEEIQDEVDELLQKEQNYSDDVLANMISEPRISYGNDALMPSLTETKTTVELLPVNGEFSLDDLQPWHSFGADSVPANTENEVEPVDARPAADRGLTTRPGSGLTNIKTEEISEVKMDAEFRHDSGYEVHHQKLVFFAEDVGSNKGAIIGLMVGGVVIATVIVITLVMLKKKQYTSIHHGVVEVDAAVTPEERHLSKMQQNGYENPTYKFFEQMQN

CCN(C)C(=O)Oc1ccc(/C=C/C(=O)N2CCc3ccccc3C2)cc1OC
Drug metabolism [1]: Metabolite_Detected
Efficacy (Danio rerio): 57.3%
Activity [2]: Toxic
Activity [3]: Active
Activity [4]: 40%
